According to patent publication US7598255B2 (Janssen Pharmaceutica NV, priority 2005, dated 2009):
Structures can show the parent of a compound that is named as a salt.

Columns and labels:
5-HT2B receptor [1] = target: T1, 5-HT2B receptor (Homo sapiens, UniProt P41595); test: Affinity for 5HT2 receptor binding sites, h5-HT2B, [3H]mesulergine; details: CHO h5-HT2B membranes
[2] = target: T2, human recombinant 5-HT2C receptor (Homo sapiens, UniProt P28335); test: Affinity for 5HT2 receptor binding sites, h5-HT2C, [3H]mesulergine; details: CHO h5-HT2C membranes
T2 sequence (P28335 33-458): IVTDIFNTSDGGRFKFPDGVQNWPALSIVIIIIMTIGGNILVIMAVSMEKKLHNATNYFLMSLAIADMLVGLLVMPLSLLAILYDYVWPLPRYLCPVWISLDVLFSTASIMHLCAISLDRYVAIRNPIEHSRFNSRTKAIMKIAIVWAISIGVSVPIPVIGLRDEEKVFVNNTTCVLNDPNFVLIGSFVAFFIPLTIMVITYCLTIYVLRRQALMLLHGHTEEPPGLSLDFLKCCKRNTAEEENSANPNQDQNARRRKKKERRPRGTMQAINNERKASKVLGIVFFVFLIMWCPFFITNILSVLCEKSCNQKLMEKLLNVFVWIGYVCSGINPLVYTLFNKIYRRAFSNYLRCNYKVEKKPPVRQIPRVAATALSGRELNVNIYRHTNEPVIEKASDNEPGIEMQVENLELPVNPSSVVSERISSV
Procedure: (§1) Sigmoidal inhibition curves were generated and fitted by nonlinear regression analysis (GraphPad Prism).
Receptor binding was performed using the human recombinant 5-HT2A (GB: X57830), 5-HT2B (GB: Z36748) and 5-HT2C (GB: M81778) receptors. The affinity of the compounds for the 3 different human 5-HT2 receptor subtypes was evaluated by competitive radioligand binding assays using [^3H]ketanserin (h5-HT2A) or [^3H]mesulergine (h5-HT2B and h5-HT2C). The assays were performed on membranes prepared from NIH3T3 stably transfected with h5-HT2A or CHO stably transfected with h5-HT2B and h5-HT2C.

5-HT2A receptor [3] = target: T3, 5-HT2A receptor (Homo sapiens, UniProt P28223); test: Affinity for 5-HT2A receptor binding sites, radioligand binding with [3H]ketanserin; details: read-out: Ki 5-HT2A, rat cortex membranes (assay 2) or NIH3T3 h5-HT2A membranes (assay 3), table does not say which
T3 sequence (P28223 whole entry): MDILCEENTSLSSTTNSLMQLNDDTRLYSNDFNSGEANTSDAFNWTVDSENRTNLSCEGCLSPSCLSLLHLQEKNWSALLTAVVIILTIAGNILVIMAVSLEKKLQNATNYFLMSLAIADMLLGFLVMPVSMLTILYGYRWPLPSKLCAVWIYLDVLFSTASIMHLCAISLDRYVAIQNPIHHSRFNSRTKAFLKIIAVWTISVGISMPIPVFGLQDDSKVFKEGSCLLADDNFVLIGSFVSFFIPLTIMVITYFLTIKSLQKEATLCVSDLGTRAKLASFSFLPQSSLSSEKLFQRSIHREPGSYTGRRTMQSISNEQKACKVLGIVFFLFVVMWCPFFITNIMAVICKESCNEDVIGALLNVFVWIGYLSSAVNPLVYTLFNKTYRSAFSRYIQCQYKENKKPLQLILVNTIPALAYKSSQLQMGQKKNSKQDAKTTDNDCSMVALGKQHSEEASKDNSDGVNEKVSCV
Procedure: as §1
The affinity of the compounds for the rat 5-HT2A receptor was evaluated by competitive radioligand binding assay using [^3H]ketanserine as the radioligand. […] Brain tissue (rat cortex) was homogenized in 20 volumes per wet weight tissue of Tris-HCl buffer (50 mM, pH 7.4). The total membrane fraction was collected by centrifugation and washed by subsequent centrifugation runs (25 min at 25,000 g at 4° C.). Membranes were re-suspended in Tris-HCl buffer (50 mM, pH 7.4) containing 1 nM [^3H]ketanserin. Non-specific binding was estimated in the presence of 10 μM risperidone. The incubation was terminated by rapid filtration over Whatman GF/B filters pre-soaked in 0.1% polyethylenimine, and one washing step with 1 mL ice-cold Tris-HCl buffer, pH 7.4.

5-HT2A receptor [4] = target: T3, 5-HT2A receptor; test: In vitro functional assay for 5-HT2 receptor (intracellular calcium, FLIPR), 5-HT2A; type: cell-based; details: same cell lines as receptor binding, read-out: pKb 5-HT2A (converted)
Text: The 5-HT2 receptors are linked to the Gq family of G proteins and to subsequent activation of phospholipase C, induction of phosphoinositide metabolism and to an increase in intracelular calcium concentration. The same cell lines as described in the previous section (receptor binding) were used for the FLIPR experiments.

rat 5-HT7a receptor = rat 5-HT7a receptor (Rattus norvegicus, UniProt P32305); test: Affinity for 5-HT7 receptor binding sites, radioligand binding with [3H]5-CT; details: membranes of HEK-293 cells with rat 5-HT7a, 1 nM [3H]5-CT
Chain of rat 5-HT7a receptor (P32305 whole entry): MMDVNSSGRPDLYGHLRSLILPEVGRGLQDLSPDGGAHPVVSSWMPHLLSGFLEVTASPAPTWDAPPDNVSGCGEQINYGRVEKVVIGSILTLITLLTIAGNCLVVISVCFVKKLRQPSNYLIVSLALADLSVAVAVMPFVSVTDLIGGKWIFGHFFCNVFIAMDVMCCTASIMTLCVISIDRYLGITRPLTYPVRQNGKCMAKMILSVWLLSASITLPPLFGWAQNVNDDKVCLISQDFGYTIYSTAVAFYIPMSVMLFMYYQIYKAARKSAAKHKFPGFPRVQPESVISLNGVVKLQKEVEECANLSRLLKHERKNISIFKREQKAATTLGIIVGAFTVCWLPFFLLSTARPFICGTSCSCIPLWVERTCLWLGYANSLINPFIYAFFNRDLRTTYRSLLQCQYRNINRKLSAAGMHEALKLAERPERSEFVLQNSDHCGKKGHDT
Procedure, shortened: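 Competition binding on membranes from HEK-293 cells stably expressing rat 5-HT7a, 135 μg protein/mL in 50 mM Tris-HCl pH 7.5, 5 mM EDTA. Incubated 60 min at RT with 1 nM [3H]5-CT and increasing compound concentrations; nonspecific binding with 10 μM 5-HT. Filtration and scintillation counting, in triplicate.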

5-HT2B receptor [5] = target: T1, 5-HT2B receptor; test: In vitro functional assay for 5-HT2 receptor (intracellular calcium, FLIPR), 5-HT2B; type: cell-based; details: same cell lines as receptor binding, read-out: pKb 5-HT2B (converted)
Procedure: In vitro functional properties of these compounds on the different 5-HT2 receptor substypes were determined using fluorometric imaging plate reader (FLIPR) based calcium assay as previously described (Porter, R. H. et al. Br. J. Pharmacol. 1999, 128, 13-20; Jerman, J. C. et al. Eur. J. Pharmacol. 2001, 414, 23-30). The 5-HT2 receptors are linked to the Gq family of G proteins and to subsequent activation of phospholipase C, induction of phosphoinositide metabolism and to an increase in intracelular calcium concentration. The same cell lines as described in the previous section (receptor binding) were used for the FLIPR experiments.

[6] = target: human recombinant 5-HT6 receptor (Homo sapiens, UniProt P50406); test: Affinity for 5-HT6 receptor binding sites, [3H]LSD; details: HEK-293 h5-HT6 membranes
Chain of human recombinant 5-HT6 receptor (P50406 whole entry): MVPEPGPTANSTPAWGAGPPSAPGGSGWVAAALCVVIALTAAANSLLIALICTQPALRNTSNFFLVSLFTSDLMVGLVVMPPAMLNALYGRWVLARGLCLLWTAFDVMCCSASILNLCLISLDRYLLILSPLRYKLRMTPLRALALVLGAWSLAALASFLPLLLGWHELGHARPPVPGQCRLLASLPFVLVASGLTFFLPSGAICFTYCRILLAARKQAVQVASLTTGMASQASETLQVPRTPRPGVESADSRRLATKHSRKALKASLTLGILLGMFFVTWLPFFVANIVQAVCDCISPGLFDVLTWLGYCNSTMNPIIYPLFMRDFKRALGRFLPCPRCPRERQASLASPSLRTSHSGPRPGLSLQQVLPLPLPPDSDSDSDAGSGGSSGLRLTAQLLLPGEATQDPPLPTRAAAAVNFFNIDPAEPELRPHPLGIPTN

T1 sequence (P41595 whole entry): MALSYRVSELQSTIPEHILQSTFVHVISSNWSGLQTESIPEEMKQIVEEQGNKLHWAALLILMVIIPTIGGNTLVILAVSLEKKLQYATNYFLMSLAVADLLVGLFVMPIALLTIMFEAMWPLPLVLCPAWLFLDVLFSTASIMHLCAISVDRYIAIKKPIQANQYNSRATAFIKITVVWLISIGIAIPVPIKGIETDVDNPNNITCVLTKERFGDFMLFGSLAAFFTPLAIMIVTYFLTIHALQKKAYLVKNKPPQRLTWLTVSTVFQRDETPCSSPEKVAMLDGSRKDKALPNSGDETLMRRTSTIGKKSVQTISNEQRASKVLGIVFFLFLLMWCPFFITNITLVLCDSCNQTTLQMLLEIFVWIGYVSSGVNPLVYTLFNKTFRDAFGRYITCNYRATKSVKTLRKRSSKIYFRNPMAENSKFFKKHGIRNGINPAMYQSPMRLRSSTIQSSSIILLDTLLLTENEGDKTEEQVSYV

SMILES | Ki (5-HT2B receptor [1]) | Ki [2] | Ki (5-HT2A receptor [3]) | Kb (5-HT2A receptor [4]) | Ki (rat 5-HT7a receptor) | Kb (5-HT2B receptor [5]) | Ki [6]
Fc1ccc(Cc2nc3c(c(-c4ccc(F)cc4)n2)CNCC3)cc1 [Example 13, 2-(4-Fluoro-benzyl)-4-(4-fluoro-phenyl)-5,6,7,8-tetrahydro-pyrido[4,3-d]pyrimidine] | 2200 nM | 1000 nM | 12.5 nM | 79.4 nM | > 10000 nM |  | 
Fc1ccc(-c2nc(C3CCCC3)nc3c2CNCC3)cc1 [Example 17, 2-Cyclopentyl-4-(4-fluoro-phenyl)-5,6,7,8-tetrahydro-pyrido[4,3-d]pyrimidine] | 250 nM | 70 nM | 4 nM | 7.94 nM | > 10000 nM | 3980 nM | 
Cc1ccc(-c2nc(C3CCCC3)nc3c2CNCC3)cc1 [Example 18, 2-Cyclopentyl-4-p-tolyl-5,6,7,8-tetrahydro-pyrido[4,3-d]pyrimidine] | 80 nM | 60 nM | 10 nM | 25.1 nM | 525 nM | 200 nM | 330 nM
CC(C)c1nc2c(c(-c3ccc(F)cc3)n1)CNCC2 [Example 21, 4-(4-Fluoro-phenyl)-2-isopropyl-5,6,7,8-tetrahydro-pyrido[4,3-d]pyrimidine hydrochloride] | 1190 nM | 1170 nM | 25 nM | 31.6 nM | > 10000 nM |  | > 10000 nM
CC(C)c1nc2c(c(-c3ccc(F)cc3)n1)CCNCC2 [Example 50, 4-(4-Fluoro-phenyl)-2-isopropyl-6,7,8,9-tetrahydro-5H-pyrimido[4,5-d]azepine hydrochloride] | 20 nM | 80 nM | 3.7 nM |  | 240 nM | 5.01 nM | 260 nM
Fc1ccc(Cc2nc3c(c(-c4ccc(F)cc4)n2)CCNCC3)cc1 [Example 57, 2-(4-Fluoro-benzyl)-4-(4-fluoro-phenyl)-6,7,8,9-tetrahydro-5H-pyrimido[4,5-d]azepine] | 40 nM | 50 nM | 0.7 nM | 6.31 nM | 550 nM | 126 nM | 80 nM
CN1CCc2nc(Cc3ccc(F)cc3)nc(-c3ccc(F)cc3)c2CC1 [Example 62, 2-(4-Fluoro-benzyl)-4-(4-fluoro-phenyl)-7-methyl-6,7,8,9-tetrahydro-5H-pyrimido[4,5-d]azepine] | 21 nM | 21 nM | 0.75 nM | 1.58 nM | 5270 nM | 50.1 nM | 27 nM
C=C1CN(C)CCc2c1nc(Cc1ccc(F)cc1)nc2-c1ccc(F)cc1 [Example 63, 2-(4-Fluoro-benzyl)-4-(4-fluoro-phenyl)-7-methyl-9-methylene-6,7,8,9-tetrahydro-5H-pyrimido[4,5-d]azepine] | 52 nM | 46 nM | 1.5 nM | 15.8 nM | > 10000 nM | 501 nM | 60 nM
Fc1ccc(-c2nc(Cc3ccccc3)nc3c2CCCNC3)cc1 [Example 64, 2-Benzyl-4-(4-fluoro-phenyl)-6,7,8,9-tetrahydro-5H-pyrimido[4,5-c]azepine hydrochloride] | 1300 nM | 70 nM | 10 nM | 79.4 nM | > 10000 nM |  | 1300 nM
Fc1ccc(-c2nc(Cc3ccccc3)nc3c2CCNC3)cc1 [Example 76, 2-Benzyl-4-(4-fluoro-phenyl)-5,6,7,8-tetrahydro-pyrido[3,4-d]pyrimidine hydrochloride] | 315 nM | 75 nM | 9 nM | 100 nM | 150 nM |  | 300 nM
c1ccc(Cc2nc3c(c(-c4ccccc4)n2)CCNC3)cc1 [Example 78, 2-Benzyl-4-phenyl-5,6,7,8-tetrahydro-pyrido[3,4-d]pyrimidine] | 900 nM | 380 nM | 25 nM | 79.4 nM | 400 nM |  | 
CN1CCc2c(nc(Cc3ccccc3)nc2-c2ccc(F)cc2)C1 [Example 82, 2-Benzyl-4-(4-fluoro-phenyl)-7-methyl-5,6,7,8-tetrahydro-pyrido[3,4-d]pyrimidine hydrochloride] | 500 nM | 20 nM | 2 nM | 7.94 nM | > 10000 nM | 3980 nM | 230 nM
CC(C)c1nc(-c2ccc(F)cc2)c2c(n1)C(C)CNC2 (stereo not shown) [Example 100, 4-(4-Fluoro-phenyl)-2-isopropyl-8-methyl-5,6,7,8-tetrahydro-pyrido[4,3-d]pyrimidine hydrochloride] | 900 nM | 300 nM | 14 nM | 100 nM | > 10000 nM |  | 
CNC1CCc2nc(C(C)C)nc(-c3ccc(F)cc3)c2C1 (stereo not shown) [Example 109, [4-(4-Fluoro-phenyl)-2-isopropyl-5,6,7,8-tetrahydro-quinazolin-6-yl]-methyl-amine hydrochloride] | > 10000 nM | > 10000 nM | 400 nM |  | > 10000 nM |  | > 10000 nM
